{"source": "patent EP4094762A1", "about": "“TREATMENT OF NEUROLOGICAL INDICATIONS” (UCL Business Ltd, priority 2021, dated 2022)", "key": {"[1]": {"assay": "In vivo pharmacodynamic EEG study after oral administration", "set-up": "species or system Sprague-Dawley rats", "conditions": "rat, 10mg/kg orally", "source_text": "Study to assess in vivo pharmacodynamic activity of BPTU (S1) in the CNS of rats following oral administration.\nPre-surgery: The animals were allowed a minimum period of 7 days acclimatisation on arrival in the facility.\nSurgery: Male Sprague-Dawley rats were anaesthetised with isoflurane (2-5% in Oxygen at 11/min) throughout the procedure. The scalp, neck and right flank were cleared of hair using clippers and cleaned using diluted Hibitane (50% (v/v) in water). A non-steroidal anti-inflammatory agent was administered (Carprofen 5mg/kg, s.c.) and the animals placed on a homeothermic blanket (37 °C) with the head fixed in a stereotaxic frame. Incisions were made in the scalp and neck, as well as in the right flank. Blunt dissection of the abdominal muscle was then made to gain access to the peritoneal cavity. A radio transmitter (HD-S02, Data Sciences International) was implanted with the body of the transmitter placed in the peritoneal cavity and secured to the muscle wall with non-absorbable sutures through the body of the transmitter. The wires of the transmitter were passed through the muscle wall and then sub-dermally using a trochar (16G needle) to the scalp to act as EEG/EMG electrodes. The scalp was cleared of connective tissue and two bore holes were made in the skull with a trepanning drill (fronto-parietal coordinates: Bregma +2mm anterior, midline +1.0mm lateral and Lambda 0mm, +1.5mm lateral). The positive EEG electrode was attached to the anterior bore hole and the negative EEG electrode to the posterior bore hole. Both electrodes were secured in place using a suitable adhesive agent (Cyanoacrylate gel, RS components). A second set of electrodes were sutured into the nuchal muscle to act as EMG electrodes. All incisions were closed using absorbable suture. The animals were allowed to recover in a warm environment and given 5ml of saline s.c. The animals were kept singly in the cage until next day, then pair housed for the duration of post-surgical recovery (min 7 days). During the recovery period, the rats received 5 days of standard post-operative care with no further experimental procedures until the pre-operative body weight was regained. The animals were maintained on a 12/12hr light dark cycle after the surgery.\nTesting: On study days, the animals were placed in recording boxes individually and EEG/EMG as well as locomotor activity were recorded for 0.5 h before and 24 h after each dosing. […]\nThe subsequent EEG/EMG recordings were automatically scored (see Table below for sleep stage definitions) as wake, non-REM (NREM) sleep, or REM sleep in 10 second epochs using SleepSign (Kissei Comtec, Japan).\nPower spectral analysis was performed on EEG data recorded over the first 3 h. […]"}, "[2]": {"assay": "CNS penetration: intravenous cassette pharmacokinetic study, brain and plasma by LC-MS/MS", "conditions": "mouse; for CNS penetrant (asterisk): in vivo; for CNS penetration: total brain to plasma ratio: t = 2 hr, 0.4mg/kg intravenous", "method": "To assess penetration of compounds into the mouse central nervous system, intravenous pharmacokinetic studies were undertaken in C57B16/J mice. […] Compounds were then combined into a single dosing solution and administered together via the intravenous route into 24 mice. Total compound dose administered to each mouse was 2mg/kg. Mice were culled at various times post dosing and brain and plasma collected for bioanalysis. In particular, mice were culled and plasma collected for bioanalysis at 8 time points out to 24 hours post dosing. Brains were also collected for bioanalysis at various time points to assess CNS penetration. 2 hour and 4 hour brain collection was carried out in all studies. Additional time points were collected in selected studies.\nFor bioanalysis, compounds were prepared in DMSO and aliquoted together to ensure a final concentration of 1mg/mL per compound in DMSO. Analytical standards were prepared from the initial 1mg/mL stock solution of compound, with a 12-point standard curve range from 0.5ng/mL to 2000ng/mL, with independent quality control tests from 1ng/mL to 1000ng/mL run to validate the standards. All standards and QC samples were matrix matched to eliminate possible suppression. Plasma samples were prepared with a 1:10 dilution in plasma. […] Dose solutions were diluted in a control matrix to a relative concentration that fell on the standard curve. Cold acetonitrile containing internal standard was added to all samples, standards, dose samples and QC samples; samples were then centrifuged for 30 minutes at 4000rpm. After centrifugation, supernatant was transferred to a new 96-well plate, diluted with an equal volume of water and mixed thoroughly before LC-MS analysis.\nSupernatents were analysed by LC-MS/MS. From the analysis data a response ratio was obtained using the formula Response Ratio = Test Peak Area/Internal Standard Peak Area. From the standard curve, the test peak area was converted to concentration of test compound.\nTo establish CNS penetration, the ratio of the concentration of each compound in the plasma samples to the brain samples was assessed."}, "[3]": {"biological_target": "T1, P2Y1 receptor (Homo sapiens, UniProt P47900)", "T1 construct": "expressed in transfected cells", "T1 sequence (P47900 whole entry)": "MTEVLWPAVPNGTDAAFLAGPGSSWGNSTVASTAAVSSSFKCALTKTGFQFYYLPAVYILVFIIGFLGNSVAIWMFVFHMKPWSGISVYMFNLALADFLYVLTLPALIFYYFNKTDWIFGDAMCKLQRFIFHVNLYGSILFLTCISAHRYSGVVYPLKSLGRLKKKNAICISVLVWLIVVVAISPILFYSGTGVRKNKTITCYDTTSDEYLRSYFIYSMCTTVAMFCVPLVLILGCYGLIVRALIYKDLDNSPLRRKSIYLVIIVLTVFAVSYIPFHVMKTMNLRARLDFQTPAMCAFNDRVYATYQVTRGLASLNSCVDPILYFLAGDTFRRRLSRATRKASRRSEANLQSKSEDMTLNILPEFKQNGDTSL", "assay": "Cell based HTRF assay measuring IP1 accumulation; antagonism of the P2Y1 agonist MRS2365", "conditions": "rounded to nearest whole number", "procedure": "IC50 values were determined using a cell based assay in stably transfected cells overexpressing the P2Y1 receptor. The assay system is a high throughput […] assay measuring accumulation of the intracellular messenger inositol monophosphate (IP1), generated intracellularly following activation of P2Y1.\nP2Y1 overexpressing cells were maintained in T175 flasks. The day before the assay, these cells were split and 20µl cell suspension transferred to each well of white 384-well assay plates at a cell density of 0.5x10^6 cells/mL. Plates were pulse centrifuged, then incubated overnight at 37°C / 5% CO2 prior to assay.\nOn day of assay, medium was removed from cells and replaced with stimulation buffer. […] Positive control antagonist curves with standard compounds were included on each plate. Plates were incubated with antagonists for 1 hour prior to addition of 5nM of the agonist MRS2365, dispensed using a Bravo liquid handler. Following agonist addition, plates were incubated for 60 minutes prior to assay. Both incubations were carried out at 37°C / 5% CO2.\nFor the assay, IP1 accumulation was quantified using the IPOne kit according to manufacturer's instructions. In short, a standard curve was prepared for IP1 quantification, and cells lysed using kit lysis buffer. Assay reagents were added to the lysates, and incubated for 1 hour at room temperature without spinning or shaking. Plates were analysed on a BMG Pherastar plate reader, and IP1 signal generated in cells interpolated from the standard curve."}}, "note": "Where two headings read alike, the source gives them in different places. Marks after values point to notes of the source that are not given here."}
{"compound": "CC(C)(C)c1ccccc1Oc1ncccc1NC(=O)Nc1ccc(OC(F)(F)F)cc1", "note": "[BPTU, 1-(2-(2-(tert-butyl)phenoxy)pyridin-3-yl)-3-(4-(trifluoromethoxy)phenyl)urea]", "values": [{"measurement": "EEG power, delta band", "setting": "[1]; during non-REM sleep", "value": "Significant increases"}, {"measurement": "EEG power, theta band", "setting": "[1]; during non-REM sleep", "value": "Significant increases"}, {"measurement": "EEG power, gamma frequency band", "setting": "[1]; during wake", "value": "Significant increases"}, {"measurement": "changes in the EEG power spectrum", "setting": "[1]; first three hours post dosing", "value": "significant changes"}]}
{"compound": "CC(C)(C)c1ccccc1Oc1ncccc1NC(=O)Nc1ccc(OC(F)(F)F)cc1", "note": "[S1 (BPTU), 1-(2-(2-(tert-butyl)phenoxy)pyridin-3-yl)-3-(4-(trifluoromethoxy)phenyl)urea]", "values": [{"measurement": "CNS penetrant (asterisk)", "setting": "[2]; C57B16/J, 0.4 mg/kg", "value": "S1 (BPTU)*"}]}
{"compound": "O=C(Nc1ccc(OC(F)(F)F)cc1)Nc1cccnc1Oc1ccccc1C1(C(F)(F)F)CC1", "note": "[S4, 1-(4-(trifluoromethoxy)phenyl)-3-(2-(2-(1-(trifluoromethyl)cyclopropyl)phenoxy)pyridin-3-yl)urea]", "values": [{"measurement": "CNS penetrant (asterisk)", "setting": "[2]", "value": "S4*"}, {"measurement": "IC50", "setting": "[3]; read-out: IC50 IP1", "value": 0.058, "unit": "µM"}]}
{"compound": "CC(C)(C)c1ccccc1Oc1ncccc1NC(=O)Nc1ccc(C(F)(F)F)s1", "note": "[S8, 1-(2-(2-(tert-butyl)phenoxy)pyridin-3-yl)-3-(5-(trifluoromethyl)thiophen-2-yl)urea]", "values": [{"measurement": "CNS penetrant (asterisk)", "setting": "[2]", "value": "S8*"}, {"measurement": "IC50", "setting": "[3]; read-out: IC50 IP1", "value": 0.121, "unit": "µM"}]}
{"compound": "Cc1c(Oc2ncccc2NC(=O)Nc2ccc(OC(F)(F)F)cc2)cccc1N1CCCCC1", "note": "[S9]", "values": [{"measurement": "CNS penetrant (asterisk)", "setting": "[2]", "value": "S9*"}, {"measurement": "IC50", "setting": "[3]; read-out: IC50 IP1", "value": 0.122, "unit": "µM"}]}
{"compound": "CC(C)(C)c1ccccc1Oc1cccc(O)c1NC(=O)Nc1ccc(OC(F)(F)F)cc1", "note": "[S11, 1-(2-(2-(tert-butyl)phenoxy)-6-hydroxyphenyl)-3-(4-(trifluoromethoxy)phenyl)urea]", "values": [{"measurement": "CNS penetrant (asterisk)", "setting": "[2]", "value": "S11*"}, {"measurement": "IC50", "setting": "[3]; read-out: IC50 IP1", "value": 0.15, "unit": "µM"}]}
{"compound": "CC1(C)CN(c2ccccc2NC(=O)Nc2ccc(OC(F)(F)F)cc2)c2c(O)ccc(-c3ccc(Cl)cc3)c21", "note": "[compound 1, reference compound]", "values": [{"measurement": "CNS penetration: total brain to plasma ratio", "setting": "[2]", "value": "BLLQ^d"}, {"measurement": "IC50", "setting": "[3]; 5nM MRS2365, read-out: IC50", "value": 0.033, "unit": "µM"}]}
{"compound": "Cc1ccc(NC(=O)Nc2ccc(OC(F)(F)F)cc2)c(Oc2ccccc2C(C)(C)C)n1", "note": "[compound 3, 1-(2-(2-(tert-butyl)phenoxy)-6-methylpyridin-3-yl)-3-(4-(trifluoromethoxy)phenyl)urea, reference compound]", "values": [{"measurement": "CNS penetration: total brain to plasma ratio", "setting": "[2]", "value": "BLLQ^d"}, {"measurement": "IC50", "setting": "[3]; 5nM MRS2365, read-out: IC50", "value": 0.036, "unit": "µM"}]}
